Usually Tmax stands for the time from dosing to the highest level. In general, Cmax refers to the peak of the concentration-time curve. For orientation: Vss means the apparent volume that relates the amount in the body to the concentration in plasma or blood.

From US9763995B2, “Polymer conjugates of protegrin peptides” (Nektar Therapeutics, priority 2008, dated 2017) come the findings set out here.

Data set [1] in a line: Pharmacokinetic studies of the protegrin conjugates, single IV dose. Type of data set: in vivo, Sprague-Dawley rats. The note with it: equivalent protein mass 1.6 mg/kg IV. The method, then: Twenty one (21) adult male Sprague-Dawley rats with indwelling jugular vein and carotid artery catheters (JVC/CAC) (Charles River Labs, Hollister, Calif.) were utilized for this study. The weight range of the animals was 313-346 grams. All animals were food fasted overnight. Prior to dosing the rats were weighed, the tails and cage cards were labeled for identification and the doses were calculated. Anesthesia was induced and maintained with 3.0-5.0% isoflurane. The JVC and CAC were externalized, flushed with HEP/saline (10 IU/mL HEP/mL saline), plugged, and labeled to identify the jugular vein and carotid artery The predose sample was collected from the JVC. […] Following the last collection point, the animals were euthanized. Bioanalytical analysis: analysis of the plasma samples was conducted using non-validated LC-MS/MS methods. Noncompartmental PK data analysis and report preparation was completed. PK analysis was performed using WinNonlin (Version 5.2, Mountain View, Calif.-94014). Concentrations in plasma that were below LLOQ were replaced with zeros prior to generating Tables and PK analysis. The following PK parameters were estimated using plasma concentration-time profile of each animal: • C0 Extrapolated concentration to time “zero” • Cmax Maximum (peak) concentration • AUCall Area under the concentration-time from zero to time of last concentration value • T1/2(Z) Terminal elimination half-life • AUCinf Area under the concentration-time from zero to time infinity • Tmax Time to reach maximum or peak concentration following administration • CL Total body clearance • Vz Volume of distribution based on terminal phase • Vss Volume of distribution at steady state • MRTlast Mean residence time to last observable concentration

Data set [2] concerns rat red blood cells. The data set is described as follows: Hemolysis assay. It is filed as cell-based. The method, then: Hemolysis assay. Approximately 10 mL of blood was drawn from one adult rat into Na Heparin tube and kept in ice until use. Red blood cells were washed three times with 10 mL of cold DPBS ((−) CaCl2 and (−) MgCl2) and collected by sequential centrifugation at 3,000 g for 5 min at 4° C. Pellets of red blood cells were resuspended with DPBS ((−) CaCl2 and (−) MgCl2) and the total volume was brought up to initial volume of blood drawn. One mL of resuspended red blood cells was resuspended with 49 mL of DPBS ((−) CaCl2 and (−) MgCl2). Incubation mixture was prepared by 400 fold dilution of stock solution of test compounds with final volume of 800 μl. Final concentration of test compounds was equimolar to that of respective unconjugated compounds. Hemolysis incubation was done at 37° C. with mild agitation. For releasable conjugates, test compounds were preincubated in 1×PBS at 37° C. prior to hemolysis assay. Incubation mixture was centrifuged at 3,000 g for 5 min at 4° C., and the absorbance at 550 nm was read from supernatant. […] [table]

Setting [3] is: non-releasable PEG conjugates, Sprague Dawley rats, Mean ± SD.
Where [4] appears, read: protegrin-1 in plasma, rats, native or via releasable PEG conjugate.

Take `CC(C)C[C@H](NC(=O)[C@H](CCCNC(=N)N)NC(=O)CNC(=O)CNC(=O)[C@@H](N)CCCNC(=N)N)C(=O)N[C@H]1CSSC[C@@H](C(=O)N[C@H](C(=O)NCC(=O)N[C@@H](CCCNC(=N)N)C(N)=O)C(C)C)NC(=O)[C@H](C(C)C)NC(=O)[C@@H]2CSSC[C@H](NC(=O)[C@H](Cc3ccc(O)cc3)NC1=O)C(=O)N[C@@H](CCCNC(=N)N)C(=O)N[C@@H](CCCNC(=N)N)C(=O)N[C@@H](CCCNC(=N)N)C(=O)N[C@@H](Cc1ccccc1)C(=O)N2` [Protegrin-1]: in data set [1] (male, Sprague-Dawley, rat, in vivo, protegrin-1 in plasma, rats, native or via releasable PEG conjugate), the time of peak concentration (Tmax) was determined as 1.8 min. Moreover, in data set [1] (setting [3]), the AUCINF was 1160 ± 351 ng·h/mL, the CL is reported as 1470 ± 434^ mL/hr/kg, the Cmax stood at 2050 ± 601 ng/mL and the MRTlast was determined as 31.2 ± 3 min. Further, in data set [1] (setting [3]), the T1/2 was determined as 21 ± 6 min and the distribution volume (Vss) stood at 0.848 ± 0.36 L/kg. Further, in data set [1] (setting [4]), the AUCINF was found to be 1160 ng·h/mL, the maximum concentration (Cmax) is on record as 2050 ng/mL, the MRTlast was 31.2 min and the T1/2 is 21 min. Also, the “hemolytic effects / hemolytic activity” value in data set [2] (rat red blood cells, 37° C., relative to 100% hemolysis by 0.25% Triton X-100, releasable conjugates preincubated in 1XPBS at 37° C.) is “comparable to literature data”. Moreover, the “hemolytic activity retained compared to PG1 preincubated for 0 hr” value in data set [2] (red cells of rat, 96 h) is listed as “about 60%”.
